PubChem BioAssay (NCI)
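These data come from cells grown in 96-well plates and exposed to compound for 48 hours at five concentrations. Abbreviation: GI50, concentration required for 50% inhibition of growth. TGI: total growth inhibition.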

Assays:
Assay in all cases: NCI anticancer screen, dose series, 48 h
MOLT-4 leukemia = test system: MOLT-4 leukemia
HT29 colon = test system: HT29 colon
OVCAR-4 ovarian = test system: OVCAR-4 ovarian
NCI-H23 lung = test system: NCI-H23 lung
SK-MEL-28 melanoma = test system: SK-MEL-28 melanoma
LOX IMVI melanoma = test system: LOX IMVI melanoma
CAKI-1 renal = test system: CAKI-1 renal
KM12 colon = test system: KM12 colon
HOP-92 NSCLC = test system: HOP-92 NSCLC
NCI-H460 lung = test system: NCI-H460 lung
HCC-2998 colon = test system: HCC-2998 colon

SMILES	TGI (MOLT-4 leukemia) [µM]	TGI (HT29 colon) [µM]	TGI (OVCAR-4 ovarian) [µM]	TGI (NCI-H23 lung) [µM]	TGI (SK-MEL-28 melanoma) [µM]	TGI (LOX IMVI melanoma) [µM]	TGI (CAKI-1 renal) [µM]	TGI (KM12 colon) [µM]	TGI (HOP-92 NSCLC) [µM]	TGI (NCI-H460 lung) [µM]	TGI (HCC-2998 colon) [µM]	GI50 (MOLT-4 leukemia) [µM]	GI50 (HT29 colon) [µM]	GI50 (OVCAR-4 ovarian) [µM]	GI50 (HCC-2998 colon) [µM]	GI50 (NCI-H23 lung) [µM]	GI50 (LOX IMVI melanoma) [µM]	GI50 (CAKI-1 renal) [µM]	GI50 (KM12 colon) [µM]	GI50 (HOP-92 NSCLC) [µM]
O=C(O)C1=NNC(C(=O)O)=NN1	> 100	> 100	> 100	> 100	> 100	> 100	> 100	> 100	> 100	> 100	–	–	–	–	–	–	–	–	–	–
CC(CO)(CO)Nc1ncnc2ccccc12	> 100	> 100	> 100	> 100	> 100	> 100	> 100	> 100	> 100	> 100	> 100	–	–	–	–	–	–	–	–	–
COc1cc(C)c2c(=O)c3c(oc2c1)C(=O)c1c(O)c(OC)cc(O)c1C3=O	4.6	> 50	4.28	3.38	7.44	1.24	1.85	11.9	1.26	3.97	25	–	–	–	–	–	–	–	–	–
c1ccc2sc(SCN(C3CCCCC3)C3CCCCC3)nc2c1	> 100	> 100	> 100	> 100	> 100	> 100	> 100	> 100	> 100	> 100	> 100	–	–	–	–	–	–	–	–	–
COc1cc2c(cc1Oc1ccc(OC)c3c1CC1c4c(cc(OC)c(OC)c4-3)CCN1C)CC1c3c(cc(OC)c(OC)c3-2)CCN1C (stereo unspecified)	4.41	2.94	10.4	27.4	3.44	2.48	8.06	9.33	12.4	3.88	5.89	–	–	–	–	–	–	–	–	–
O=c1cc(O)c2ccccc2o1	> 100	> 100	> 100	> 100	> 100	> 100	> 100	> 100	> 100	> 100	> 100	–	–	–	–	–	–	–	–	–
Fc1ccc(-c2nnc3sc(COc4ccccc4Cl)nn23)cc1Cl	> 100	> 100	78.4	> 100	–	31.6	> 100	> 100	> 100	–	> 100	24.5	48.1	28.2	> 100	33.4	16.5	76.6	77.1	30.4
COc1c(Cl)cc(S(=O)O)cc1Cl	> 100	> 100	> 100	> 100	> 100	> 100	–	> 100	–	> 100	> 100	–	–	–	–	–	–	–	–	–
Cn1c(Sc2ccc(-c3cccnc3)n2C)ccc1-c1cccnc1	7.78	55.1	36.6	34.8	26.9	15.8	36.5	33.6	28.1	31.1	34.7	–	–	–	–	–	–	–	–	–
Nc1nnc(N)n1NC(=O)C(=O)Nc1ccc([N+](=O)[O-])cc1	> 100	> 100	> 100	> 100	> 100	> 100	> 100	> 100	> 100	> 100	> 100	–	–	–	–	–	–	–	–	–
CCOC(=O)NC	–	> 100	> 100	> 100	> 100	> 100	> 100	> 100	> 100	> 100	> 100	–	–	–	–	–	–	–	–	–
NC(=O)Nc1cc(O)ccc1N=Nc1ccc(S(=O)(=O)Nc2ccccn2)cc1	> 100	> 100	> 100	> 100	> 100	> 100	> 100	> 100	> 100	> 100	> 100	–	–	–	–	–	–	–	–	–
CC1(O)CC23CC1CCC2(C)C12CCCC(C)(C(=O)O1)C2CC3O (stereo unspecified)	–	> 100	> 100	> 100	> 100	> 100	> 100	> 100	> 100	> 100	> 100	–	–	–	–	–	–	–	–	–
Cc1cc(=O)oc2c1cc(OCC(=O)OCCN1CCCCC1)c1occ(C)c12	> 100	> 100	> 100	> 100	> 100	> 100	> 100	> 100	> 100	> 100	> 100	–	–	–	–	–	–	–	–	–
CC(C)=CCC[C@](C)(O[C@@H]1O[C@H](CO)[C@@H](O)[C@H](O)[C@H]1O)[C@H]1CC[C@]2(C)[C@@H]1[C@H](O)C[C@@H]1[C@@]3(C)CC[C@H](O)C(C)(C)[C@@H]3[C@@H](O[C@@H]3O[C@H](CO)[C@@H](O)[C@H](O)[C@H]3O)C[C@]12C	–	> 100	> 100	> 100	> 100	> 100	> 100	> 100	> 100	> 100	> 100	–	–	–	–	–	–	–	–	–
